Where a SMILES comes first, the peptide text is derived from it. The star is where a group is joined. Cbz = O=C(OCc1ccccc1)*; CH2F = FC*
Tests used:
Type in all cases: cell-based, human
[1] = tested on: CLL B-cells; test: Cell cycle analysis by Propidium Iodide staining and FACS; conditions: inhibitor added with IL24 to cells cultured overnight with IL2 (IL2+IL24+inhibitor); vs 3.36 ± 1.3% without inhibitor
Protocol: For apoptosis studies, cells were stained either with the Apo 2.7-PE mAb (Beckman-Coulter, Villepinte, France) on ice for 15 min, washed and resuspended on 300 µl of PBS 1X supplemented with 0,1% BSA or with the Annexin V-FITC apoptosis detection kit (Becton Dickinson Biosciences, Le-Pont-de-Claix, France), 1x10^5 cells in 100 µl 1X binding buffer were stained with 5 µl of Annexin V-FITC and 5 µl Propidium Iodide (PI) in the dark for 15 min at room temperature (RT). 400 µl of 1X binding buffer was added before fluorescence-activated cell sorted (FACS) analysis. For cell cycle analysis 1x10^6 cells were washed with cold PBS1X and resuspended in 1ml EtOH 70% and kept on ice for at least 10 min. Cells were then centrifuged and the pellet resuspended in 1ml PBS 1X + RNAse (40 µg) Saint-Quentin Fallavier, France) + Propidium Iodide (18 µl) at room temperature. […]
Fluorescence was measured using a FACScan flow cytometer (BD Biosciences), and data analysis was performed using CellQuest software (BD Biosciences).
It was next determined whether the inhibition of thymidine incorporation by B-cells reflected cell cycle block and/or apoptosis. […] The respective percentages of hypodiploid (apoptotic) cells, and of cells in G0-G1, S and G2-M cell cycle phase, and finally of hyperdiploid cells were evaluated (M1 to M4 populations respectively in figure 3a). […]

[2] = tested on: P-stat3; test: Stat3 phosphorylation (Phospho-Y705 stat3) by western blot and immunostaining in CLL cells
Protocol: For pervanadate experiments, fresh CLL cells were preincubated or not with IL2 overnight, then incubated or not with pervanadate 25 µM during 5 min and stimulated or not with IL24 for 10 min and lysed as previously described. Blots were hybridyzed with anti phospho-Tyr 705-STAT3 (B-7) MAb (Tebu-bio), dehybridyzed and reblotted with anti STAT3 MAb (BD Transduction Laboratories).
Stat3 was strongly and stably phosphorylated in cells incubated overnight with IL2 as evidenced by hybridization with an anti Phospho-Y705 stat3 MAb. In contrast, phospho(P)-stat5 disappeared and total stat5 diminished in the cytosol of cells incubated overnight with IL2, presumably due to dimerization and translocation to the nucleus (Paukku et al. Cytokine Growth Factor Rev. 2004. 6:435-55).
Cells were therefore incubated or not for 5 min with […] pervanadate (PV), an inhibitor of protein tyrosine phosphatase activity (Heffetz and Bushkin H. J Biol Chem. 1990. 265:2896-902) and stimulated 10 min with IL24 on cells preincubated or not with IL2. Cytospin and western blot experiments were performed.
Troglitazone (TG) is an activator of protein-tyrosine phosphatase (PTP)-1B that reduced P-Y705-stat3 and promoted apoptosis in human primary gliomas (Akasaki et al. J Biol Chem. 2005. 281:6165-74). TG was therefore used to determine if it is able to stimulate p53 expression and apoptosis in CLL. […]

[3] = tested on: CLL cells; test: CLL cell survival in culture (trypan blue cell count, cell cycle analysis); conditions: culture for > 30 min
Protocol: • Figure 1. rIL24 protects CLL B-cells from death in culture. • a) CLL cells (2x10^6/ml) were cultured in complete medium (•) or with 100 ng/ml rIL24 (▲) every 7 days and cells counted using trypan blue exclusion. % living cells was calculated in each sample (mean ± SD, n=8). b) Cell scatter, Apoptosis shown by Apo 2.7-PE staining, and cell cycle shown by PI staining from one representative sample (CLL 70) at day 21. M1: hypodiploid (apoptotic cells) M2: cells into G0/G1, M3: cells into S+G2+M, M4: hyperdiploid cells. • Figure 2. rIL24 inhibits thymidine incorporation in activated CLL cells. • a) IL24 was added to IL2-cultured cells as in figure 1, one day before (d-1) at the same time (d0) or one day after (d=1) IL2. b) IL24 was added to CLL cells cultured for 24 h with IL2, IL2+CD40-Ligand or anti-IgM+CD40-Ligand. Tymidine (0.5 mCi/ml) was added at day 3 for 15 h. […] Mean ± SD (n=8) of the M1 to M4 populations calculated as in (a) from CLL cells cultured with IL2 (hatched histogram) or IL2 then IL24 (white histogram). […] RNA was extracted at day 3, reverse-transcribed, amplified and analyzed by real-time PCR. […]

Compound: Cc1ccc(C(=O)Cn2c3c(sc2=N)CCCC3)cc1 [Pft-a, Pifithrin]
- cells in S/G2/M [1]: 6.44 ± 2.2%

Compound: Cc1c(C)c2c(c(C)c1O)CCC(C)(COc1ccc(CC3SC(=O)NC3=O)cc1)O2 (centres unmarked) [TG, Troglitazone]
- total Stat3 expression ([2]; IL2-cultured CLL cells): no effect

Compound: COC(=O)C[C@H](NC(=O)[C@H](C)NC(=O)[C@@H](NC(=O)OCc1ccccc1)C(C)C)C(=O)CF [zvad, ZVAD-fmk] (Cbz-Val-Ala-Asp(OMe)-CH2F)
- cells in S/G2/M [1]: 4.8 ± 1.77%

Compound: pervanadate [PV]
- toxicity in culture [3]: too toxic
- IL24-mediated inhibition of P-Stat3 ([2]; 5 min with 25 µM pervanadate, then 10 min IL24): antagonized
